Laboratory results as given in patent publication US20110191867A1.

Key:
[1] = test system: serum antibodies of test subjects
[2] = test system: serum antibodies of test subjects; conditions: serum of 8 persons

Substance | comparison of the cyclic and linear peptide, reactivity with sera [1] | reaction with serum of test subject [1] | reactivity with sera of test subjects [1] | immune responses of serum antibodies against the peptides [2]
Biotin-aminocaproyl-RPKVRDQ [Peptide 3C] | more reactive with low signals with other subjects | higher reaction | Strong responses were observed from the serum of test subjects S5B | 
Biotin-aminocaproyl-SRPRVRNIP [Peptide 2B] |  | high reaction | much weaker reactions | especially effective in binding with certain antibodies
